In US6878690B2, “Compounds and methods” (PharmAxis Pty Ltd., priority 2000, dated 2005):
Several values for one entry are separate records, joined by “and”; a condition that tells them apart may be missing. Identical values can stand only once.

How the values were obtained:
[1] = system: passively transferred EAE; assay: Passively transferred EAE induced with concanavalin A stimulated spleen lymphoblasts (Example 24); type: in vivo, Lewis rats; parameters: key to Clinical score - Treated, Mean: 0 = asymptomatic to 5 = hind limb paralysis; details: for Clinical score - Treated, Mean: group mean; for Mean maximum clinical score / DI (disease index): treated group
Description: In a similar type of experiment outlined in Example 20, and in order to study the effect of the agents of the present invention in vivo on a disease caused by T lymphocyte migration into a specific tissue, further experiments were performed in a Lewis rat model of passively transferred EAE. Here, myelin basic protein (MBP)-specific T lymphocytes were generated in spleens of Lewis rats that had been immunised with guinea pig MBP in Freund's complete adjuvant. Thus, in this manner donor T lymphocytes were generated from male 12-20 week old Lewis rats weighing 200 to 250 g. These rats were injected intradermally in a footpad of each hind foot with an emulsion of guinea pig myelin basic protein (MBP; prepared according to the method of Deibler et al., 1972; incorporated herein by reference) in Freund's complete adjuvant (0.1 ml). The adjuvant emulsion was prepared by emulsifying equal volumes of a mixture of 85% light mineral oil (0.8417 g/mL (Sigma)) plus 15% mannide monooleate (Sigma) containing Mycobacterium butyricum (4 mg/ml; Difco) and normal saline containing guinea pig myelin basic protein (0.25 mg/ml). Thus, the total dose per rat was 25 micrograms of MBP and 400 micrograms of M. butyricum. Ten days following injection, the rats were euthanased and the spleens removed aseptically by blunt dissection and placed into mixed lymphocyte culture medium. This medium was prepared in the normal fashion from Dulbecco's Modified Eagle's Medium (DMEM; GIBCO, Grand Island, N.Y.) supplemented with glucose (4 g/L), folic acid (6 mg/L), L-asparagine (36 mg/L), sodium bicarbonate (2 g/L), L-arginine (116 mg/L), L-glutamine (2 mM), sodium pyruvate (1 mM), HEPES (10 mM), 2-mercaptoethanol (5×10^−5 M), penicillin, streptomycin, neomycin, and 10% fetal calf serum. A single cell suspension was prepared from the spleens in the usual manner by gently pushing them through a stainless steel screen. The cells were washed twice and cultured asceptically for 72 hours at 37° C. in a humidified atmosphere containing 5% carbon dioxide at a concentration of 2 million cells per milliliter in the presence of concanavalin A (2 microgram/mL). The cells were collected and washed twice in Hanks balanced salt solution. Cells were resuspended in Hanks balanced salt solution and each recipient animal (10-12 weeks old female Lewis rats; 160-180 g) received 40-42.5 million lymphoblasts by lateral tail vein injection in a volume of 0.5 ml.
In a typical experiment 4-5 recipient rats were anesthetised with diethyl ether and implanted with mini-osmotic pumps (Alzet 2001, Alza Corp., Palo Alto Calif., USA) containing the test compound. A second group of 4 animals, the control group, under ether anesthesia, were implanted with Alzet 2001 pumps containing normal saline. Mini-osmotic pumps were implanted three days after cell transfer. Disease severity (clinical score) was scored on an arbitrary scale of severity ranging from 0 to 5 as follows: 0, asymptomatic; 1, flaccid distal half of tail; 2, entire tail flaccid; 3, ataxia, difficulty in righting reflex; 4, hind limb weakness; 5, hind limb paralysis. Mean maximum clinical scores were calculated and the disease index (DI) for each group was calculated as described in Example 20. The results of these experiments are outlined in Tables 6, 7 and 8.

[2] = system: DTH response to 2,4-dinitrofluorobenzene (DNFB); assay: Delayed-type hypersensitivity (DTH) response to DNFB, ear swelling; type: in vivo, Balb/C mice; details: for Mean percentage decrease in ear swelling in treated animals: versus saline controls; for Mean Difference, Treated: group mean; for Difference (right minus left ear), Treated / Right ear thickness, Treated / Left ear thickness, Treated: individual mice, 24 hours after challenge; for Right ear thickness, Treated: challenged ear; for Left ear thickness, Treated: control (unchallenged) ear
Source text: In the present Example, a murine model of Type IV hypersensitivity or delayed-type hypersensitivity (DTH) response to cutaneous contact with the chemical hapten 2,4-dinitrofluorobenzene (DNFB) (Aldrich Chemical Company Inc, USA) was used as a model to measure the anti-inflammatory effects of compounds of the present invention. Specific pathogen-free 8-12 week old female Balb/C mice, weighing 19-21 g, were sensitised in a similar manner to that described by Klimuk et al., (Klimuk et al., 1999) by applying a solution of DNFB (0.5% in acetone:olive oil (4:1, v/v); 30 microliters,) onto a 2 cm^2 shaved area of the abdomen. After 7 days, the animals were anesthetised with diethyl ether and 8 microliters of DNFB (0.35% in acetone:olive oil (4:1, v/v) was applied to the dorsal and ventral surfaces of the right pinna. Prior to regaining consciousness, the mice were implanted intraperitoneally with Alzet 2001 mini-osmotic pumps (Alza Corp., Palo Alto Calif., USA) containing phosphoric acid mono-[6-(3-hexyloxy-propyl)-3,4,5-trihydroxy-tetrahydro-pyran-2-ylmethyl] ester, sodium salt in normal saline. The dose delivered was 50 mg/kg/day. Control animals for this group received saline delivered in identical mini-osmotic pumps. A second experimental group of mice received phosphoric acid mono-[3-(3,4,5-trihydroxy-6-phosphonooxymethyl-tetrahydro-pyran-2-yl)-propyl] ester disodium salt via one-week delivery Alzet 2001 mini-osmotic pumps implanted intraperitoneally. This compound was delivered at a dose of 40 mg/kg/day. Control animals for this group received saline delivered in identical mini-osmotic pumps. In a third experiment a separate group of mice received (3,4,5-trihydroxy-6-phosphonooxymethyl-tetrahydro-pyran-2-yl)-acetic acid disodium salt via one-week delivery Alzet 2001 mini-osmotic pumps that were placed intraperitoneally. This compound was delivered at 45 mg/kg/day. The control group for this experiment received identical mini-osmotic pumps containing normal saline. In a fourth experiment a group of mice received 3-phenyl-2-[2-(3,4,5-trihydroxy-6-phosphonooxymethyl-tetrahydro-pyran-2-yl)-acetylamino]-propionic acid monosodium salt via one-week delivery Alzet 2001 mini-osmotic pumps that were placed subcutaneously. This compound was delivered at 62 mg/kg/day. The control group for this experiment received identical mini-osmotic pumps containing normal saline. In a fifth experiment a group of mice received hexanoic acid 3-(3,4,5-trihydroxy-6-phosphonooxymethyl-tetrahydro-pyran-2-yl)-propyl ester sodium salt via one-week delivery Alzet 2001 mini-osmotic pumps that were placed subcutaneously. This compound was delivered at 40 mg/kg/day. The control group for this experiment received identical mini-osmotic pumps containing normal saline.
Twenty-four hours after challenge the mice were lightly anesthetised with diethyl ether and the thickness of the left and right pinnae measured (in millimeters) using a dial gauge micrometer (Interapid, Switzerland). Care was taken to measure only the outer two thirds of the ear. The increase in ear thickness initiated by the DTH response was determined by subtracting the measurement of the left ear (untreated) from the right ear (challenged).
In Table 4, values in the columns labeled Left and Right are measurements of ear thickness in millimeters of the control and challenged ears respectively.

[3] = 50 mg/kg/day, mini-osmotic pump intraperitoneally, monosodium salt
[4] = 40 mg/kg/day, mini-osmotic pump subcutaneously, monosodium salt
[5] = 40 mg/kg/day, mini-osmotic pump intraperitoneally, disodium salt

CCCCCCOCCCC1OC(COP(=O)([O-])O)C(O)C(O)C1O.[Na+] (stereo not shown) [phosphoric acid mono-[6-(3-hexyloxy-propyl)-3,4,5-trihydroxy-tetrahydro-pyran-2-ylmethyl] ester, monosodium salt]
Clinical score - Treated, Mean ([1]; day 5, 50 mg/kg/day subcutaneously): 1 | Clinical score - Treated ([1]; day 5, individual rats, 50 mg/kg/day subcutaneously, scale 0 to 5, monosodium salt, 50 mg/kg/day): 0.5 (2×) and 1 and 2 | Clinical score - Treated, Mean ([1]; day 6, 50 mg/kg/day subcutaneously): 2.75 | Clinical score - Treated ([1]; day 6, individual rats, 50 mg/kg/day subcutaneously, scale 0 to 5, monosodium salt, 50 mg/kg/day): 3 and 2 (2×) and 4 | Clinical score - Treated, Mean ([1]; day 7, 50 mg/kg/day subcutaneously): 2.5 | Clinical score - Treated ([1]; day 7, individual rats, 50 mg/kg/day subcutaneously, scale 0 to 5, monosodium salt, 50 mg/kg/day): 2 (3×) and 4 | Clinical score - Treated, Mean ([1]; day 8, 50 mg/kg/day subcutaneously): 2.25 | Clinical score - Treated ([1]; day 8, individual rats, 50 mg/kg/day subcutaneously, scale 0 to 5, monosodium salt, 50 mg/kg/day): 2 (3×) and 3 | Clinical score - Treated, Mean ([1]; day 9, 50 mg/kg/day subcutaneously): 1.25 | Clinical score - Treated ([1]; day 9, individual rats, 50 mg/kg/day subcutaneously, scale 0 to 5, monosodium salt, 50 mg/kg/day): 1 (2×) and 1.5 (2×) | Clinical score - Treated, Mean ([1]; day 10, 50 mg/kg/day subcutaneously): 0.5 | Clinical score - Treated ([1]; day 10, individual rats, 50 mg/kg/day subcutaneously, scale 0 to 5, monosodium salt, 50 mg/kg/day): 0 (2×) and 1 (2×) | Mean maximum clinical score ([1]; 50 mg/kg/day subcutaneously, control 4.5): clinical score 3 | DI (disease index) ([1]; 50 mg/kg/day subcutaneously, control DI 67.2): DI - 34.1 Mean maximum | Mean percentage decrease in ear swelling in treated animals ([2]; 50 mg/kg/day intraperitoneally): Mean percentage decrease in ear swelling in treated animals: 36.7% | Mean Difference, Treated ([2]; 50 mg/kg/day intraperitoneally, saline control mean 0.098): 0.062 millimeters | Difference (right minus left ear), Treated [2, 3]: 0.03 millimeters and 0.05 millimeters (2×) and 0.08 millimeters and 0.1 millimeters | Right ear thickness, Treated [2, 3]: 0.25 millimeters (2×) and 0.26 millimeters and 0.3 millimeters and 0.32 millimeters | Left ear thickness, Treated [2, 3]: 0.22 millimeters (3×) and 0.21 millimeters and 0.2 millimeters

CCCCCC(=O)OCCCC1OC(COP(=O)(O)O)C(O)C(O)C1O.[Na] (stereo not shown) [hexanoic acid 3-(3,4,5-trihydroxy-6-phosphonooxymethyl-tetrahydro-pyran-2-yl)-propyl ester monosodium salt]
Mean percentage decrease in ear swelling in treated animals ([2]; 40 mg/kg/day subcutaneously): Mean percentage decrease in ear swelling in treated animals: 47.6% | Mean Difference, Treated ([2]; 40 mg/kg/day subcutaneously, saline control mean 0.126): 0.066 millimeters | Difference (right minus left ear), Treated [2, 4]: 0.07 millimeters (2×) and 0.08 millimeters and 0.05 millimeters and 0.06 millimeters | Right ear thickness, Treated [2, 4]: 0.29 millimeters (3×) and 0.28 millimeters and 0.27 millimeters | Left ear thickness, Treated [2, 4]: 0.22 millimeters (2×) and 0.21 millimeters (2×) and 0.23 millimeters

O=P([O-])([O-])OCCCC1OC(COP(=O)(O)O)C(O)C(O)C1O.[Na+].[Na+] (stereo not shown) [phosphoric acid mono-[3-(3,4,5-trihydroxy-6-phosphonooxymethyl-tetrahydro-pyran-2-yl)-propyl] ester disodium salt]
Clinical score - Treated, Mean ([1]; day 4, 40 mg/kg/day intraperitoneally): 0 | Clinical score - Treated ([1]; day 4, individual rats, 40 mg/kg/day intraperitoneally, scale 0 to 5): 0 | Clinical score - Treated, Mean ([1]; day 5, 40 mg/kg/day intraperitoneally): 1.375 | Clinical score - Treated ([1]; day 5; individual rats; 40 mg/kg/day intraperitoneally; scale 0 to 5; disodium salt, 40 mg/kg/day)): 2 (2×) and 0 and 1.5 | Clinical score - Treated, Mean ([1]; day 7, 40 mg/kg/day intraperitoneally): 2.125 | Clinical score - Treated ([1]; day 7; individual rats; 40 mg/kg/day intraperitoneally; scale 0 to 5; disodium salt, 40 mg/kg/day)): 2.5 and 1 and 3 and 2 | Clinical score - Treated, Mean ([1]; day 8, 40 mg/kg/day intraperitoneally): 1.75 | Clinical score - Treated ([1]; day 8; individual rats; 40 mg/kg/day intraperitoneally; scale 0 to 5; disodium salt, 40 mg/kg/day)): 2 (2×) and 0.5 and 2.5 | Clinical score - Treated, Mean ([1]; day 9, 40 mg/kg/day intraperitoneally): 0.75 | Clinical score - Treated ([1]; day 9; individual rats; 40 mg/kg/day intraperitoneally; scale 0 to 5; disodium salt, 40 mg/kg/day)): 1 (3×) and 0 | Clinical score - Treated, Mean ([1]; day 10, 40 mg/kg/day intraperitoneally): 0.125 | Clinical score - Treated ([1]; day 10; individual rats; 40 mg/kg/day intraperitoneally; scale 0 to 5; disodium salt, 40 mg/kg/day)): 0 (3×) and 0.5 | Mean maximum clinical score ([1]; 40 mg/kg/day intraperitoneally, control 3.0): clinical score 2.3 | DI (disease index) ([1]; 40 mg/kg/day intraperitoneally, control DI 45.0): DI - 18.6 Mean maximum | Mean percentage decrease in ear swelling in treated animals ([2]; 40 mg/kg/day intraperitoneally): Mean percentage decrease in ear swelling in treated animals: 30% | Mean Difference, Treated ([2]; 40 mg/kg/day intraperitoneally, saline control mean 0.086): 0.060 millimeters | Difference (right minus left ear), Treated [2, 5]: 0.07 millimeters and 0.03 millimeters and 0.02 millimeters and 0.06 millimeters and 0.12 millimeters | Right ear thickness, Treated [2, 5]: 0.28 millimeters (2×) and 0.25 millimeters and 0.23 millimeters and 0.33 millimeters | Left ear thickness, Treated [2, 5]: 0.21 millimeters (3×) and 0.22 millimeters (2×)
